Data set [1] concerns B-16 melanoma cells. Put plainly: Cell-survival rate (cytotoxicity) in B-16 melanoma cell culture. The class given is cell-based. From the text:
(§1) The B-16 melanoma cell is one having an ability of producing melanin and therefore, the cells naturally grown by cell culture blacken. If a substance capable of inhibiting melanogenesis is present in the cell growth system during the cell growth, the blackening of the cells is inhibited and they relatively whiten. Accordingly, the whitening effect of each candidate substance can be evaluated on the basis of the degree of whiteness observed when adding a test sample relative to the degree of blackness observed for a control. […] To evaluate this cytotoxicity, the cell survival rate observed when adding a test sample to the system is compared with that observed for the control. Thus, the substantial whitening effect can be evaluated on the basis of the results of these cell-whitening test and cytotoxicity test.
The cell-survival rate at each added sample concentration can be determined according to the following formula
Cell-Survival Rate (%)=(A/B)×100
Wherein A represents the viable cell count observed for the system to which a sample is added and B represents the number of cells observed for the control system.

Data set [2] has as its system B-16 melanoma cells. Put plainly: Test for evaluating melanogenesis-inhibitory function (cell-whitening degree) in cell culture systems using B-16 melanoma cells. The class given is cell-based. Further details: key to Whitening degree: ++: The whitening degree is higher than that observed when adding 450 μg/mL of vitamin C-magnesium phosphate.; +: The whitening degree is almost identical to that observed when adding 450 μ g/mL of vitamin C-magnesium phosphate.; ±: The whitening degree is not higher than that observed when adding 450 μg/mL of vitamin C-magnesium phosphate, but higher than that of the control.; −: The whitening degree is almost identical to that observed for the control.
Description: as §1
An example of such a method for evaluating the melanogenesis-inhibitory function in a cell culture system using B-16 melanoma cells comprises, for instance, the steps of dispensing 2 ml/well of a culture medium to each well of a 6-well plate, inoculating a desired amount of melanoma cells to the medium, cultivating the cells by allowing the medium to stand at 37° C. and a carbon dioxide concentration of 5%. On the following day, a solution of a test sample is added and mixed with the culture medium to a predetermined concentration and the cell cultivation is continued. After 5 days from the initiation of the cultivation, the culture medium is replaced with fresh one and the solution of the test sample is again added thereto. On the next day, the medium is removed to thus recover the cells, followed by washing them with PBS (phosphate-buffered saline) and the determination of the degree of whiteness to thus evaluate the whitening effect of the test sample. In this connection, the melanogenesis-inhibitory function is evaluated by comparing the results thus obtained with the degree of whiteness observed when the same procedures are repeated using the vitamin C-magnesium phosphate as a known whitening agent instead of the test sample solution (positive control) and that observed when the procedures are repeated without addition of any test sample (control).
A culture medium was dispensed to wells of a 6-well plate (2 mL/well each), followed by inoculation of a desired amount of B-16 melanoma cells on each well, allowing the wells to stand at 37° C. and 5% CO2 to thus cultivate the cells. On the day subsequent thereto, a sample solution prepared was added to the wells with stirring and the cultivation was continued. The culture medium was replaced with fresh one on the 5th day from the initiation of the cultivation and the sample solution was again added to the wells. On the next day, the culture medium was removed to recover the cells, followed by washing them with PBS (phosphate buffered physiological saline) and then evaluation of the cell-whitening degree In this respect, the melanogenesis-inhibitory function was evaluated by comparing the cell-whitening degree thus obtained with that observed when the same procedures used above were repeated except that vitamin C-magnesium phosphate as a known whitening agent (positive control) was substituted for the sample solution used above and that observed when the same procedures used above were repeated except that any sample was not added (control), according to the following evaluation criteria.
The evaluation criteria for the cell-whitening degree are as follows: […]

Where [3] appears, read: concentration 2 ppm, B-16 melanoma cells.
Where [4] appears, read: concentration 4 ppm, B-16 melanoma cells.
[5] abbreviates: concentration 6 ppm, B-16 melanoma cells.
The mark [6] stands for this setting: concentration 8 ppm, B-16 melanoma cells.
Setting [7] is: concentration 10 ppm, B-16 melanoma cells.
Setting [8] is: concentration 15 ppm, B-16 melanoma cells.
Setting [9] is: concentration 25 ppm, B-16 melanoma cells.
Setting [10] is: concentration 50 ppm, B-16 melanoma cells.

For `CC1(C)CC[C@]2(CO)CC[C@]3(C)C(=CC[C@@H]4[C@@]5(C)CC[C@H](O)C(C)(C)[C@@H]5CC[C@]43C)[C@@H]2C1` [Erythrodiol, erythrodiol], the “cell-survival rate at the added concentration showing a whitening degree almost identical to vitamin C-magnesium phosphate at 450 ppm” value (“cell-survival rate … at 450 ppm” below) in the data set on B-16 melanoma cells [1] (mouse) is given as 99-100%. Further, the “Cell-Survival Rate” value was found to be 100% in the data set with B-16 melanoma cells [1] (mouse, 2 ppm); 100% in the data set with B-16 melanoma cells [1] (mouse, 4 ppm); 100% with B-16 melanoma cells [1] (mouse, 6 ppm); 100% with B-16 melanoma cells [1] (mouse, 8 ppm); 100% with B-16 melanoma cells [1] (mouse, 10 ppm); 100% in the data set on B-16 melanoma cells [1] (mouse, 15 ppm). In addition, the “Cell-Survival Rate” value came to 100% with B-16 melanoma cells [1] (mouse, 25 ppm); 97% in the data set with B-16 melanoma cells [1] (mouse, 50 ppm); 85% in the data set on B-16 melanoma cells [1] (mouse, 100 ppm); 72% in the data set on B-16 melanoma cells [1] (mouse, 200 ppm). The Whitening degree entry with B-16 melanoma cells [2] (setting [3]), with B-16 melanoma cells [2] (setting [4]), with B-16 melanoma cells [2] (setting [5]), in the data set on B-16 melanoma cells [2] (setting [6]), in the data set on B-16 melanoma cells [2] (setting [7]) and with B-16 melanoma cells [2] (setting [8]) was “±” in each case. In addition, the Whitening degree entry with B-16 melanoma cells [2] (setting [9]) and with B-16 melanoma cells [2] (setting [10]) was “+” each time. For the same molecule, the “oil-solubility, in words” value in “Solubility (oil / water)” is given as “oil-soluble”.
Regarding `CC1(C)CC[C@]2(C(=O)O)CC[C@]3(C)C(=CC[C@@H]4[C@@]5(C)C[C@@H](O)[C@H](O)C(C)(C)[C@@H]5CC[C@]43C)[C@@H]2C1` [maslinic acid], in “Solubility (oil / water)”, the “oil-solubility, in words” value is “oil-soluble” and the “solubility in water, in words” value is “hardly soluble in water”.
For `C[C@H]1[C@H](C)CC[C@]2(CO)CC[C@]3(C)C(=CC[C@@H]4[C@@]5(C)CC[C@H](O)C(C)(C)[C@@H]5CC[C@]43C)[C@H]12` [Uvaol, uvaol], in the data set with B-16 melanoma cells [1] (mouse), the “cell-survival rate … at 450 ppm” value is 99-100%. The “Cell-Survival Rate” value in the data set with B-16 melanoma cells [1] (mouse, 2 ppm) is 100%; in the data set on B-16 melanoma cells [1] (mouse, 4 ppm), 100%; in the data set with B-16 melanoma cells [1] (mouse, 6 ppm), 100%; with B-16 melanoma cells [1] (mouse, 8 ppm), 100%; in the data set on B-16 melanoma cells [1] (mouse, 10 ppm), 100%; in the data set with B-16 melanoma cells [1] (mouse, 15 ppm) it was 100%. The “Cell-Survival Rate” value with B-16 melanoma cells [1] (mouse, 25 ppm) is recorded as 90%; in the data set with B-16 melanoma cells [1] (mouse, 50 ppm) it was 82%; in the data set with B-16 melanoma cells [1] (mouse, 100 ppm), 71%; in the data set with B-16 melanoma cells [1] (mouse, 200 ppm), 61%. Further, the Whitening degree entry in the data set on B-16 melanoma cells [2] (setting [3]) was “−”; in the data set on B-16 melanoma cells [2] (setting [4]) it was “−”; with B-16 melanoma cells [2] (setting [5]) it was “−”; in the data set on B-16 melanoma cells [2] (setting [6]), “±”; in the data set with B-16 melanoma cells [2] (setting [7]) it was “+”; in the data set on B-16 melanoma cells [2] (setting [8]) it was “+”. Further, the Whitening degree entry in the data set with B-16 melanoma cells [2] (setting [9]) and in the data set with B-16 melanoma cells [2] (setting [10]) was “+” throughout. For the same molecule, the “oil-solubility, in words” value in the data set “Solubility (oil / water)” is given as “oil-soluble”.
Take `C=C(C)[C@@H]1CC[C@]2(C(=O)O)CC[C@]3(C)[C@H](CC[C@@H]4[C@@]5(C)CC[C@H](O)C(C)(C)[C@@H]5CC[C@]43C)[C@@H]12` [Betulinic acid, betulinic acid]: in the data set with B-16 melanoma cells [1] (mouse), the “cell-survival rate … at 450 ppm” value was 99-100%. Also, the “Cell-Survival Rate” value came to 100% in the data set on B-16 melanoma cells [1] (mouse, 2 ppm); 100% with B-16 melanoma cells [1] (mouse, 4 ppm); 100% in the data set with B-16 melanoma cells [1] (mouse, 6 ppm); 100% with B-16 melanoma cells [1] (mouse, 8 ppm); 99% in the data set with B-16 melanoma cells [1] (mouse, 10 ppm); 83% with B-16 melanoma cells [1] (mouse, 15 ppm). Besides, the “Cell-Survival Rate” value in the data set with B-16 melanoma cells [1] (mouse, 25 ppm) is on record as 76%; with B-16 melanoma cells [1] (mouse, 50 ppm), 69%; with B-16 melanoma cells [1] (mouse, 100 ppm) it was 60%; in the data set on B-16 melanoma cells [1] (mouse, 200 ppm) it was 51%. Also, the Whitening degree result in the data set on B-16 melanoma cells [2] (setting [3]) is “−”; with B-16 melanoma cells [2] (setting [4]) it was “±”; in the data set with B-16 melanoma cells [2] (setting [5]), “±”; with B-16 melanoma cells [2] (setting [6]) it was “±”; in the data set with B-16 melanoma cells [2] (setting [7]) it was “+”; with B-16 melanoma cells [2] (setting [8]), “+”. The Whitening degree result in the data set with B-16 melanoma cells [2] (setting [9]) and in the data set on B-16 melanoma cells [2] (setting [10]) was “+” throughout. In addition, in “Solubility (oil / water)”, the “oil-solubility, in words” value is recorded as “oil-soluble”.
On to `OC[C@H]1O[C@@H](Oc2ccc(O)cc2)[C@H](O)[C@@H](O)[C@@H]1O` [Arbutin, reference compound], for which the “Cell-Survival Rate” value in the data set on B-16 melanoma cells [1] (mouse, 10 ppm) stood at 100%; in the data set with B-16 melanoma cells [1] (mouse, 15 ppm) it was 100%; in the data set with B-16 melanoma cells [1] (mouse, 25 ppm), 100%; in the data set with B-16 melanoma cells [1] (mouse, 50 ppm), 86%; in the data set on B-16 melanoma cells [1] (mouse, 100 ppm), 69%; with B-16 melanoma cells [1] (mouse, 200 ppm) it was 56%. Moreover, the “Cell-Survival Rate” value in the data set with B-16 melanoma cells [1] (mouse, 300 ppm) is given as 41%; in the data set on B-16 melanoma cells [1] (mouse, 450 ppm), 16%. Besides, the Whitening degree result in the data set with B-16 melanoma cells [2] (setting [7]) was “−”; in the data set on B-16 melanoma cells [2] (setting [8]), “−”; in the data set with B-16 melanoma cells [2] (setting [9]), “−”; with B-16 melanoma cells [2] (setting [10]), “±”; in the data set on B-16 melanoma cells [2] (concentration 100 ppm, B-16 melanoma cells), “±”; in the data set with B-16 melanoma cells [2] (concentration 200 ppm, B-16 melanoma cells), “+”. The Whitening degree entry in the data set on B-16 melanoma cells [2] (concentration 300 ppm, B-16 melanoma cells) was “++”; with B-16 melanoma cells [2] (concentration 400 ppm, B-16 melanoma cells) it was “++”.
With `CC1(C)CC[C@]2(C(=O)O)CC[C@]3(C)C(=CC[C@@H]4[C@@]5(C)C[C@@H](O)[C@H](O)C(C)(C)[C@@H]5CC[C@]43C)[C@@H]2C1` [Purified maslinic acid 2, maslinic acid], the “Cell-Survival Rate” value with B-16 melanoma cells [1] (setting [3]) is on record as 100%; in the data set on B-16 melanoma cells [1] (setting [4]) it was 100%; in the data set on B-16 melanoma cells [1] (setting [5]), 100%; with B-16 melanoma cells [1] (setting [6]), 88%; with B-16 melanoma cells [1] (setting [7]) it was 69%. For the same molecule, the Whitening degree entry in the data set on B-16 melanoma cells [2] (setting [3]) is recorded as “±”; in the data set on B-16 melanoma cells [2] (setting [4]), “+”; with B-16 melanoma cells [2] (setting [5]), “++”; with B-16 melanoma cells [2] (setting [6]) it was “++”; in the data set with B-16 melanoma cells [2] (setting [7]), “++”. Also, the “whitening effect, times that observed for vitamin C-magnesium phosphate” value in the data set with B-16 melanoma cells [2] (from Table 1, positive control vitamin C-magnesium phosphate 450 ppm) was “about 110 times”. Also, the “added concentration at which the whitening effect is almost identical to that of the positive control” value in the data set on B-16 melanoma cells [2] (positive control vitamin C-magnesium phosphate 450 ppm, B-16 melanoma cells) came out at 4 ppm.
Consider `C=C(C)[C@@H]1CC[C@]2(CO)CC[C@]3(C)[C@H](CC[C@@H]4[C@@]5(C)CC[C@H](O)C(C)(C)[C@@H]5CC[C@]43C)[C@@H]12` [Betulin, betulin], for which the “Cell-Survival Rate” value with B-16 melanoma cells [1] (setting [3]), with B-16 melanoma cells [1] (setting [4]), in the data set with B-16 melanoma cells [1] (setting [5]), in the data set with B-16 melanoma cells [1] (setting [6]), in the data set on B-16 melanoma cells [1] (setting [7]) and in the data set on B-16 melanoma cells [1] (setting [8]) was 100% throughout. The “Cell-Survival Rate” value in the data set with B-16 melanoma cells [1] (setting [9]) and in the data set with B-16 melanoma cells [1] (setting [10]) was 100% in each case. In addition, the Whitening degree result in the data set with B-16 melanoma cells [2] (setting [3]) is listed as “−”; in the data set with B-16 melanoma cells [2] (setting [4]), “−”; in the data set on B-16 melanoma cells [2] (setting [5]), “±”; with B-16 melanoma cells [2] (setting [6]) it was “±”; in the data set on B-16 melanoma cells [2] (setting [7]), “±”; in the data set with B-16 melanoma cells [2] (setting [8]) it was “+”. Further, the Whitening degree result in the data set on B-16 melanoma cells [2] (setting [9]) and with B-16 melanoma cells [2] (setting [10]) was “+” throughout. The “oil-solubility, in words” value in the data set “Solubility (oil / water)” is reported as “oil-soluble”.

The record behind these values is US20030133958A1, “External agent for the skin and whitening agent” (priority 2000, published 2003).
